Results as given in patent publication US10716750B2, “Topical ophthalmic formulations of endothelin receptor antagonists” (Retinset, S.L., priority 2015, dated 2020).
Entries after “also recorded” stand apart in the source; their conditions may differ.

How the values were obtained:
[1] = test system: diabetic mice (db/db); assay: Determination of glial activation (GFAP staining score, confocal microscopy of retina sections) after topical ocular treatment; format: in vivo
Procedure: (§1) In tests 12 male db/db mice aged 10 weeks (Harlan Laboratories, Inc.) were used, and were divided into two groups: 6 of these mice were treated with a formulation of the present invention, and 6 mice with a sodium chloride solution, as described below. 6 non-diabetic (db/+) mice matched by age were also used as the control group.
(§2) On day 15, approximately 1 hour before necropsy, a drop of formulation of the present invention or vehicle was instilled in the eyes of the animals. Following euthanasia, eyes were enucleated. The neuroretina from one of the eyes was extracted, frozen in liquid nitrogen and stored at a temperature of −80° C. The other eye was fixed with a solution of 4% paraformaldehyde, processed routinely, and embedded in paraffin blocks.
Glial activation was evaluated by Laser Scanning Confocal microscopy using specific antibodies against GFAP (glial fibrillary acidic protein). Retina sections were fixed in acidic methanol at −20° C. for 2 min, followed by three washes with phosphate buffer (PBS) for 5 min each. Retina sections were permeabilized with a tris buffer (TBS) with 0.025% Triton® X-100 and incubated for 2 hours at room temperature in a blocker solution composed of 1% BSA (serum albumin bovine) and 10% goat serum in 10% PBS. Retina sections were incubated with rabbit anti-GFAP antibody (Abcam Ltd, Cambridge, UK; 1:500 dilution prepared in blocking solution) overnight at 4° C. in a humid atmosphere. After three washes with PBS solution, 5 minutes each, the retina sections were incubated with the secondary antibody Alexa 488 goat anti-rabbit (Invitrogen, San Diego Calif., USA) at a 1:200 dilution prepared in blocking solution. Retina sections were washed three times with PBS, counterstained with Hoechst, mounted with Mounting Medium Fluorescence (Prolong, Invitrogen) and mounted with a coverslip. Comparative digital images from samples were recorded with FluoView FV 1000 Laser Scanning Confocal microscope Olympus using identical settings for brightness and contrast.
A scoring system based on the extent of GFAP staining described in Anderson et al., Glial and endothelial blood-retinal barrier responses to amyloid-β in the neural retina of the rat, Olin. Ophthalmol., 2008, 2, 801-816, was used in order to assess the degree of glial activation. This scoring system was as follows: • Score 1: Müller cell endfeet/ ganglion retinal cell layer (GCL) only; • Score 2: Müller cell endfeet region/GCL plus a few proximal processes; • Score 3: Müller cell endfeet plus many processes, but not extending to the outer nuclear layer (ONL) of the retina; • Score 4: Müller cell endfeet plus processes throughout with some in the ONL; • Score 5: Müller cell endfeet plus lots of dark processes from GCL to outer margin of ONL.
The score was assessed on the retina of each animal and a minimum of 10 sections per retina.

[2] = test system: diabetic mice (db/db); assay: Immunohistochemical evaluation of apoptosis (TUNEL staining of retina sections) after topical ocular treatment; format: in vivo
Procedure: as §1, §2
Immunohistochemical analysis for apoptosis assessment was carried out TUNEL (Terminal Transferase dUTP Nick-End Labeling) staining using the DeadEnd Fluorometric TUNEL System Kit (Promega, Madison, Wis., USA).
Cryosections of retina were permeabilized by incubation on ice for 2 min with 0.1% Triton X-100 and 0.1% sodium citrate freshly prepared solution. The secondary antibody was Alexa 488 goat anti-rabbit (Invitrogen, San Diego Calif., USA). For evaluation by Laser Scanning Confocal microscopy, the excitation wavelength was 488 nm and detection in the range from 515 to 565 nm, which corresponds to green colour.
The evaluation was carried out in the retina of each animal and a minimum of 10 sections per retina.

Structure (SMILES): COc1ccccc1Oc1c(NS(=O)(=O)c2ccc(C(C)(C)C)cc2)nc(-c2ncccn2)nc1OCCO [Bosentan]
- glial activation / reactive gliosis (in words) ([1]; 14 days, twice per day, versus vehicle-treated diabetic animals): significant decrease of reactive gliosis; also recorded: less glial activation
- degree of glial activation (percentage for each score of GFAP expression), Score 1 ([1]; one 5 μl drop of formulation of Example 1 per eye, twice daily for 14 days, Score 1: Müller cell endfeet/GCL only): 85%
- degree of glial activation (percentage for each score of GFAP expression), Score 2 ([1]; one 5 μl drop of formulation of Example 1 per eye, twice daily for 14 days, Score 2: endfeet region/GCL plus a few proximal processes): 15%
- degree of glial activation (percentage for each score of GFAP expression), Score 3 ([1]; one 5 μl drop of formulation of Example 1 per eye, twice daily for 14 days, Score 3: endfeet plus many processes, not extending to ONL): 0%
- degree of glial activation (percentage for each score of GFAP expression), Score 4 ([1]; one 5 μl drop of formulation of Example 1 per eye, twice daily for 14 days, Score 4: endfeet plus processes throughout with some in the ONL): 0%
- degree of glial activation (percentage for each score of GFAP expression), Score 5 ([1]; one 5 μl drop of formulation of Example 1 per eye, twice daily for 14 days, Score 5: endfeet plus lots of dark processes from GCL to outer margin of ONL): 0%
- share with GFAP score less than 2 ([1]; two weeks of administration): 85%
- GFAP score of the treated animals ([1]; two weeks of administration, all cases, score scale 1-5): < 3
- apoptosis in all retinal layers (in words) ([2]; 14 days, twice per day, versus control (db/+) and vehicle-treated diabetic animals): reduced apoptosis
- TUNEL staining-positive cell percentage, GCL, mean (standard deviation) ([2]; topical ocular, twice daily for 14 days, ganglion cell layer, p <0.001 vs vehicle): 1.42 (0.38) %
- TUNEL staining-positive cell percentage, INL, mean (standard deviation) ([2]; topical ocular, twice daily for 14 days, inner nuclear layer, p <0.001 vs vehicle): 0.36 (0.31) %
- TUNEL staining-positive cell percentage, ONL, mean (standard deviation) ([2]; topical ocular, twice daily for 14 days, outer nuclear layer, p <0.001 vs vehicle): 0 (0.07) %
